Laboratory results: EP0369453A2, “AGE-formation inhibitory agents” (Takeda Chemical Industries, Ltd., priority 1988, dated 1990)
Marks after values point to notes of the source that are not given here.

These molecules were tested on advanced glycosylated end products (AGE) (assay: AGE formation inhibition: bovine serum albumin incubated with D-glucose, fluorescence measurement (method of Brownlee et al.)). Conditions: Concentration of test specimen: 0.5 mM; bovine serum albumin 20%, D-glucose 100 mM, 0.5M phosphate buffer pH 7.4, 37° C for 7 days; fluorescence 370/440 nm; control = 100%.
Format: biochemical
Description: The production of advanced glycosylated end products (AGE) and its measurement were carried out in accordance with the report by Brownlee et al. [Science, 232 1629 (1986)]. Thus, bovine serum albumin (fraction V, manufactured by Wako Pure Chemical Ind. of Japan, 20%), D-glucose (100 mM) and sodium azide (3 mM) were dissolved in 0.5M phosphate buffer (pH 7.4) to prepare a reaction solution (control). A test specimen was dissolved in dimethyl sulfoxide, and the solution was added to the reaction solution to the concentrations 1 mM, 0.5 mM and 0.2 mM, respectively. These solutions were incubated at 37° C for 7 days, whereupon the solutions, before and after incubation, were diluted with phosphate buffer, followed by measurement of fluoresceces (by use of RF-510 spectrofluorimeter, manufactured by Shimadzu Seisakusho of Japan) at 370 nm of the excitation wavelength and 440 nm of the emission wavelength. The variation in fluorescence (F) was utilized to calculate the formation ratio (%) following the formula described below. In the above tests, the blind test was carried out using the reaction solution free from D-glucose. The AGE were calculated by the following equation: Formation ratio = [ F(T) - F(B)]/[ F(C) - F(B)] x 100 [formula] where F(T), F(B) and F(C) are variations in fluorescence for test specimen, blind test specimen and control, respectively.
For `O=C(NC(=S)Nc1nc(-c2ccc3c(c2)CCCC3)cs1)c1ccncc1` [Example 31], the “AGE Formation Ratio (% against the control value)” value was 53^2) %. In the case of `O=C(NC(=S)Nc1nc(-c2ccc3c(c2)CCCC3)cs1)c1ccc2ccccc2c1` [Example 34], the “AGE Formation Ratio (% against the control value)” value is reported as 0^2) %. For `Cc1ccc(C)c(C(=O)NC(=S)Nc2nc(-c3ccc4c(c3)CCCC4)cs2)c1` [Example 42], the “AGE Formation Ratio (% against the control value)” value was 35^2) %. `O=C(NC(=S)Nc1nc(-c2ccc3c(c2)CCCC3)cs1)c1ccc2c(c1)CCCC2` [Example 60] was tested, and the “AGE Formation Ratio (% against the control value)” value was 17^2) %. `CCc1sc(NC(=S)NC(=O)c2ccccc2)nc1-c1ccc2c(c1)CCCC2` [Example 20] was tested, and the “AGE Formation Ratio (% against the control value)” value was 0^2) %. In the case of `O=C(NC(=S)Nc1nc(-c2ccc3c(c2)CCCC3)cs1)c1ccc(F)cc1` [Example 26], the “AGE Formation Ratio (% against the control value)” value is reported as 34^2) %. For `CC(C)c1sc(NC(=S)NC(=O)c2ccccc2)nc1-c1ccc2c(c1)CCCC2` [Example 21], the “AGE Formation Ratio (% against the control value)” value was 19^2) %. `O=C(NC(=S)Nc1nc(-c2ccc3c(c2)CCCC3)cs1)c1ccccc1` [Example 1, 1-benzoyl-3-[4-(5,6,7,8-tetrahydro-2-naphthyl)-2-thiazolyl] thiourea] was tested, and the “AGE Formation Ratio (% against the control value)” value was 43^2) %. For `O=C(NC(=S)Nc1nc(-c2ccc3ccccc3c2)cs1)c1ccccc1` [Example 15], the “AGE Formation Ratio (% against the control value)” value was 46^2) %.

Same assay, conditions: Concentration of test specimen: 1 mM; bovine serum albumin 20%, D-glucose 100 mM, 0.5M phosphate buffer pH 7.4, 37° C for 7 days; fluorescence 370/440 nm; control = 100%
For `O=C(NC(=S)Nc1nc(-c2ccc3c(c2)CCCC3)cs1)c1c2ccccc2cc2ccccc12` [Example 63], the “AGE Formation Ratio (% against the control value)” value was 54^1) %. `O=C(NC(=S)Nc1nc(-c2ccc(C(F)(F)F)cc2)cs1)c1ccccc1` [Example 8] was tested, and the “AGE Formation Ratio (% against the control value)” value was 58^1) %. With `O=C(/C=C/c1ccccc1)NC(=S)Nc1nc(-c2ccc3c(c2)CCCC3)cs1` [Example 37] the “AGE Formation Ratio (% against the control value)” value was 49^1) %. In the case of `O=C(NC(=S)Nc1nc(-c2ccc3c(c2)CCCC3)cs1)c1ccccc1C(F)(F)F` [Example 47], the “AGE Formation Ratio (% against the control value)” value is reported as 16^1) %. In the case of `O=C(NC(=S)Nc1nc(-c2ccc3c(c2)CCCC3)cs1)c1ccc(Cl)cc1` [Example 23, 1-(4-chlorobenzoyl)-3-[4-(5,6.7,8-tetrahydro-2-naphthyl-)2-thiazolyl]thiourea], the “AGE Formation Ratio (% against the control value)” value is reported as 51^1) %. For `O=C(NC(=S)Nc1nc(-c2ccc3c(c2)OCCO3)cs1)c1ccccc1` [Example 13], the “AGE Formation Ratio (% against the control value)” value was 45^1) %. With `O=C(NC(=S)Nc1nc(-c2ccc3c(c2)CCCC3)c(-c2ccccc2)s1)c1ccccc1` [Example 22] the “AGE Formation Ratio (% against the control value)” value was 31^1) %. `O=C(NC(=S)Nc1nc(-c2ccc(Cl)cc2)cs1)c1ccccc1` [Example 10] was tested, and the “AGE Formation Ratio (% against the control value)” value was 30^1) %. In the case of `Cc1ccccc1C(=O)NC(=S)Nc1nc(-c2ccc3c(c2)CCCC3)cs1` [Example 27], the “AGE Formation Ratio (% against the control value)” value is reported as 0^1) %. In the case of `Cc1ccc(-c2csc(NC(=S)NC(=O)c3ccccc3)n2)cc1` [Example 4], the “AGE Formation Ratio (% against the control value)” value is reported as 47^1) %. `CCCCC(CC)C(=O)NC(=S)Nc1nc(-c2ccc3c(c2)CCCC3)cs1` (stereo not drawn) [Example 72] was tested, and the “AGE Formation Ratio (% against the control value)” value was 58^1) %. `COc1ccc(-c2csc(NC(=S)NC(=O)c3ccccc3)n2)cc1` [Example 11] was tested, and the “AGE Formation Ratio (% against the control value)” value was 66^1) %.
